Results as given in patent US12534748B2, “Engineered beta-subunit of tryptophan synthase for production of non-canonical amino acids” (California Institute of Technology, priority 2015, dated 2026).

Key:
[1] = molecular target: T1, Pyrococcus furiosus TrpB variant PfTrpB^0B2 (P12L, E17G, I68V, T292S, F274S, T321A), SEQ ID NO: 12 (Pyrococcus furiosus, UniProt Q8U093, E17G/F274S/I68V/P12L/T292S/T321A); test: Tryptophan formation from L-serine and indole, kinetics of PfTrpB^0B2
T1 sequence (Q8U093 with tags, fused parts or gaps P12L/E17G/I68V/F274S/T292S/T321A): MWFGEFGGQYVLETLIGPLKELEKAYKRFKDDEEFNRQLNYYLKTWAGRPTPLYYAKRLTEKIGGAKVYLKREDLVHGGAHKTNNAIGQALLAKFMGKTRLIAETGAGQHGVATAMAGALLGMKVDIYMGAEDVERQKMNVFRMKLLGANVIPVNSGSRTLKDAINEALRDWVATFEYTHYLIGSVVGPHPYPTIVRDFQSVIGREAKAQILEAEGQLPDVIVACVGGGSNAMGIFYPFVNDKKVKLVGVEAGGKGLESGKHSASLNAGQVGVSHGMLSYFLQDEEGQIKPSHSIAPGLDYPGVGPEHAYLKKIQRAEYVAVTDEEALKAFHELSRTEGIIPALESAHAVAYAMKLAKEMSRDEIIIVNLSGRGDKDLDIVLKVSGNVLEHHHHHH
Method: Cloning, Expression, and Purification of PfTrpA and PfTrpB. The genes encoding PfTrpB (UNIPROT ID Q8U093) and PfTrpA (UNIPROT ID Q8U094) were obtained as gBlocks and cloned into pET22(b)+ for expression in E. coli BL21 E. cloni EXPRESS cells (Lucigen). Heterologous protein expression of PfTrpA and PfTrpB was performed in Terrific Broth with 100 μg/mL ampicillin (TBamp) and induced with 500 mM IPTG (final concentration 1 mM). PfTrpB was purified via a HisTrap HP column. PfTrpA was purified via a Q HP HiTrap column (flow-through), followed by ammonium sulfate precipitation, and hydrophobic interaction chromatography on a phenyl Sepharose HP HiTrap column (FIG. 3).
Kinetics and UV-Vis Spectroscopy.
PfTrpB^4D11 served as template for a final round of random mutagenesis, for which 1,144 clones were screened.

[2] = molecular target: T2, Thermotoga maritima TrpB variant TmTrpB^triple (P19G, I69V, T292S), SEQ ID NO: 34 (Thermotoga maritima, UniProt P50909, I69V/P19G/T292S); test: Tryptophan formation from L-serine and indole, kinetics of TmTrpB^triple; assay type: biochemical
T2 sequence (P50909 with tags, fused parts or gaps P19G/I69V/T292S): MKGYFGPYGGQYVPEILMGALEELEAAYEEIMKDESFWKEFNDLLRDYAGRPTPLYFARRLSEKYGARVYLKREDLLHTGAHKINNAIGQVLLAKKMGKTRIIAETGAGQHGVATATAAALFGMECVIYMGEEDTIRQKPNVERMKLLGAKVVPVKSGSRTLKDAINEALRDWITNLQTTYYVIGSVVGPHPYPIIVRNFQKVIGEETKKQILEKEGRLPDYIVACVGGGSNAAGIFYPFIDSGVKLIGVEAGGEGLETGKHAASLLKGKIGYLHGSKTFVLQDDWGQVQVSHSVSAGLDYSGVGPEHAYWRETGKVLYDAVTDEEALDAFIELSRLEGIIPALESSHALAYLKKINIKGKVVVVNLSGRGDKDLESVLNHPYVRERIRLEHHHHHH
Method: Kinetics and UV-Vis Spectroscopy. Data were collected between 550 and 250 nm on a UV1800 Shimadzu spectrophotometer (Shimadzu) using 0.25-20 μM of enzyme in 200 mM potassium phosphate (pH 8.0) in a quartz cuvette. Samples were incubated at 75° C. for >3 min to ensure a stable temperature was reached. PfTrpB activity (kcat) was measured by monitoring tryptophan formation at 290 nm using Δe290=1.89 mM^−1·cm^−1.
Cloning, expression, and purification of the different orthologs. The genes encoding AfTrpB (UNIPROT ID O28672), TmTrpB (UNIPROT ID P50909) and EcTrpB (UNIPROT ID P0A879) were obtained from IDT and cloned into pET22(b)+ using Gibson Assembly. Protein expression was carried out in E. coli BL21 E. cloni Express cells (Lucigen) by inoculating 10-mL Terrific Broth (with 100 μg/mL ampicillin (TBamp)) with a single colony and incubated over night at 37° C. and 250 rpm. These overnight cultures were used to scale up to 500-mL TBamp expression cultures, which were grown by shaking at 250 rpm and 37° C. for ˜3 h or until an OD600 of 0.8 was reached. […]
The next homolog, TmTrpB, was examined. […] The variants without the T292S mutation lacked this probative absorbance peak, but the decrease at 428 nm and concomitant increase at 350 nm are consistent with a similar, though less pronounced activation.

Work on c1ccc2[nH]ccc2c1 [indole] yielded a kcat ([1]; 75° C.) of 2.9 s⁻¹, a kcat increase ([1]; relative to PfTrpB) of 9.4 fold and a kcat ([2]; 75° C.) of 9.8 s⁻¹. It also gave an increase in kcat ([2]; with respect to wild type) of 8 fold.
